# Results published in patent US7956074B2, “Aryl-isoxazolo-4-yl-oxadiazole derivatives” (Hoffman-La Roche Inc., priority 2005, dated 2011).
# Target: T1, GABA A receptor α5β3γ2 (Homo sapiens, UniProt P18507+P31644)
# T1 construct: expressed in transfected cells; host or cells: HEK293 cells, transiently transfected; membranes prepared
# Experiment: [3H]flumazenil competition binding, human GABA A α5β3γ2
# Conditions: competition for [3H]flumazenil (0.5 nM) binding, HEK293 cells expressing human (transiently transfected) α5β3γ2; means of two determinations; read-out: Ki[nM] hα5
# Description: Membrane Preparation and Binding Assay
# The affinity of compounds at GABA A receptor subtypes was measured by competition for [3H]flumazenil (85 Ci/mmol; Roche) binding to HEK293 cells expressing rat (stably transfected) or human (transiently transfected) receptors of composition
# Cell pellets were suspended in Krebs-tris buffer (4.8 mM KCl, 1.2 mM CaCl2, 1.2 mM MgCl2, 120 mM NaCl, 15 mM Tris; pH 7.5; binding assay buffer), homogenized by polytron for ca. 20 sec on ice and centrifuged for 60 min at 4° C. (50000 g; Sorvall, rotor: SM24=20000 rpm). The cell pellets were resuspended in Krebs-tris buffer and homogenized by polytron for ca. 15 sec on ice. Protein was measured (Bradford method, Bio-Rad) and aliquots of 1 mL were prepared and stored at −80° C.
# Assays were incubated to equilibrium for 1 hour at 4° C. and harvested onto GF/C uni-filters (Packard) by filtration using a Packard harvester and washing with ice-cold wash buffer (50 mM Tris; pH 7.5). After drying, filter-retained radioactivity was detected by liquid scintillation counting. Ki values were calculated using Excel-Fit (Microsoft) and are the means of two determinations.
row,Ki [nM],Compound
1,226,"Cc1onc(-c2ccccc2)c1-c1nnc(-c2ccc(S(C)(=O)=O)cc2)o1 [Example 30, 2-(4-Methanesulfonyl-phenyl)-5-(5-methyl-3-phenyl-isoxazol-4-yl)-[1,3,4]oxadiazole]"
2,199,"Cc1onc(-c2ccccc2)c1-c1nnc(-c2cccc(S(C)(=O)=O)c2)o1 [Example 31, 2-(3-Methanesulfonyl-phenyl)-5-(5-methyl-3-phenyl-isoxazol-4-yl)-[1,3,4]oxadiazole]"
3,240,"Cc1onc(-c2ccccc2)c1-c1nnc(-c2ccc([N+](=O)[O-])cc2)o1 [Example 32, 5-(5-Methyl-3-phenyl-isoxazol-4-yl)-2-(4-nitro-phenyl)-[1,3,4]oxadiazole]"
4,7.5,"COc1cc(-n2ccnc2)ccc1-c1nnc(-c2c(-c3ccccc3)noc2C)o1 [Example 33, 2-(4-Imidazol-1-yl-2-methoxy-phenyl)-5-(5-methyl-3-phenyl-isoxazol-4-yl)-[1,3,4]oxadiazole]"
5,7.9,"Cc1onc(-c2ccccc2)c1-c1nnc(-c2ccc3[nH]c(=O)[nH]c3c2)o1 [Example 34, 5-[5-(5-Methyl-3-phenyl-isoxazol-4-yl)-[1,3,4]oxadiazol-2-yl]-1,3-dihydro-benzoimidazol-2-one]"
6,31.2,"Cc1onc(-c2ccccc2)c1-c1nnc(-c2ccc(N)cc2)o1 [Example 35, 4-[5-(5-Methyl-3-phenyl-isoxazol-4-yl)-[1,3,4]oxadiazol-2-yl]-phenylamine]"
7,134,"Cc1onc(-c2ccccc2)c1-c1nnc(-c2ccc(F)cc2)o1 [Example 36, 2-(4-Fluoro-phenyl)-5-(5-methyl-3-phenyl-isoxazol-4-yl)-[1,3,4]oxadiazole]"
8,22.9,"Cc1onc(-c2ccccc2)c1-c1nnc(-c2ccc(N3CCSCC3)cc2)o1 [Example 37, 4-{4-[5-(5-Methyl-3-phenyl-isoxazol-4-yl)-[1,3,4]oxadiazol-2-yl]-phenyl}-thiomorpholine]"
9,19.7,"Cc1onc(-c2ccccc2)c1-c1nnc(-c2ccc(N3CCS(=O)(=O)CC3)cc2)o1 [Example 38, 4-{4-[5-(5-Methyl-3-phenyl-isoxazol-4-yl)-[1,3,4]oxadiazol-2-yl]-phenyl}-thiomorpholine 1,1-dioxide]"
10,16.7,"Cc1onc(-c2ccccc2)c1-c1nnc(-c2ccc(N3CC[S+]([O-])CC3)cc2)o1 [Example 39, 4-{4-[5-(5-Methyl-3-phenyl-isoxazol-4-yl)-[1,3,4]oxadiazol-2-yl]-phenyl}-thiomorpholine 1-oxide]"
11,179,"Cc1onc(-c2ccccc2)c1-c1nnc(-c2ccncc2)o1 [Example 40, 4-[5-(5-Methyl-3-phenyl-isoxazol-4-yl)-[1,3,4]oxadiazol-2-yl]-pyridine]"
12,32.5,"Cc1onc(-c2ccccc2)c1-c1nnc(-c2ccc(N3C[C@@H](C)O[C@@H](C)C3)cc2)o1 [Example 41, rac-(2S,6R)-2,6-Dimethyl-4-{4-[5-(5-methyl-3-phenyl-isoxazol-4-yl)-[1,3,4]oxadiazol-2-yl]-phenyl}-morpholine]"
13,141,"Cc1onc(-c2ccccc2)c1-c1nnc(-c2ccccc2OC(F)F)o1 [Example 42, 2-(2-Difluoromethoxy-phenyl)-5-(5-methyl-3-phenyl-isoxazol-4-yl)-[1,3,4]oxadiazole]"
14,131,"Cc1onc(-c2ccccc2)c1-c1nnc(-c2ccccc2OC(F)(F)F)o1 [Example 43, 2-(5-Methyl-3-phenyl-isoxazol-4-yl)-5-(2-trifluoromethoxy-phenyl)-[1,3,4]oxadiazole]"
15,88.9,"Cc1onc(-c2ccccc2)c1-c1nnc(-c2ccnc3ccccc23)o1 [Example 44, 4-[5-(5-Methyl-3-phenyl-isoxazol-4-yl)-[1,3,4]oxadiazol-2-yl]-quinoline]"
16,100,"Cc1onc(-c2ccccc2)c1-c1nnc(-c2cccc(F)c2)o1 [Example 45, 2-(3-Fluoro-phenyl)-5-(5-methyl-3-phenyl-isoxazol-4-yl)-[1,3,4]oxadiazole]"
17,255,"Cc1onc(-c2ccccc2)c1-c1nnc(-c2ccccc2OCc2ccccc2)o1 [Example 46, 2-(2-Benzyloxy-phenyl)-5-(5-methyl-3-phenyl-isoxazol-4-yl)-[1,3,4]oxadiazole]"
18,46.9,"Cc1onc(-c2ccccc2)c1-c1nnc(-c2ccc(N3CCCCC3)cc2)o1 [Example 47, 1-{4-[5-(5-Methyl-3-phenyl-isoxazol-4-yl)-[1,3,4]oxadiazol-2-yl]-phenyl}-piperidine]"

row,Ki [nM],Compound
1,38.9,"Cc1onc(-c2ccccc2)c1-c1nnc(-c2ccc(N)nc2)o1 [Example 48, 5-[5-(5-Methyl-3-phenyl-isoxazol-4-yl)-[1,3,4]oxadiazol-2-yl]-pyridin-2-ylamine]"
2,39.7,"COc1cc(C(F)(F)F)ccc1-c1nnc(-c2c(-c3ccccc3)noc2C)o1 [Example 49, 2-(2-Methoxy-4-trifluoromethyl-phenyl)-5-(5-methyl-3-phenyl-isoxazol-4-yl)-[1,3,4]oxadiazole]"
3,250,"Cc1onc(-c2ccccc2)c1-c1nnc(-c2ccc(C(F)(F)F)cc2)o1 [Example 50, 2-(5-Methyl-3-phenyl-isoxazol-4-yl)-5-(4-trifluoromethyl-phenyl)-[1,3,4]oxadiazole]"
4,128,"Cc1onc(-c2ccccc2)c1-c1nnc(-c2ccc3c(c2)n(C)c(=O)n3C)o1 [Example 51, 1,3-Dimethyl-5-[5-(5-methyl-3-phenyl-isoxazol-4-yl)-[1,3,4]oxadiazol-2-yl]-1,3-dihydro-benzoimidazol-2-one]"
5,58.9,"Cc1onc(-c2ccccc2)c1-c1nnc(-c2ccc(OC(F)F)cc2)o1 [Example 52, 2-(4-Difluoromethoxy-phenyl)-5-(5-methyl-3-phenyl-isoxazol-4-yl)-[1,3,4]oxadiazole]"
6,2.3,"CC(C)c1onc(-c2ccccc2)c1-c1nnc(-c2ccc3c(c2)n(C)c(=O)n3C)o1 [Example 53, 5-[5-(5-Isopropyl-3-phenyl-isoxazol-4-yl)-[1,3,4]oxadiazol-2-yl]-1,3-dimethyl-1,3-dihydro-benzoimidazol-2-one]"
7,88.4,"Cc1onc(-c2ccccc2)c1-c1nnc(-c2ccnc(Cl)c2)o1 [Example 54, 2-Chloro-4-[5-(5-methyl-3-phenyl-isoxazol-4-yl)-[1,3,4]oxadiazol-2-yl]-pyridine]"
8,324,"Cc1onc(-c2ccccc2)c1-c1nnc(-c2ccnc(N3CCOCC3)c2)o1 [Example 55, 4-{4-[5-(5-Methyl-3-phenyl-isoxazol-4-yl)-[1,3,4]oxadiazol-2-yl]-pyridin-2-yl}-morpholine]"
9,2.2,"COc1cc(N2CC[S+]([O-])CC2)ccc1-c1nnc(-c2c(-c3ccccc3)noc2C)o1 [Example 56, 4-{3-Methoxy-4-[5-(5-methyl-3-phenyl-isoxazol-4-yl)-[1,3,4]oxadiazol-2-yl]-phenyl}-thiomorpholine 1-oxide]"
10,84.2,"Cc1onc(-c2ccccc2)c1-c1nnc(-c2ccc(C#N)cc2)o1 [Example 57, 4-[5-(5-Methyl-3-phenyl-isoxazol-4-yl)-[1,3,4]oxadiazol-2-yl]-benzonitrile]"
11,13.9,"COc1cc(-n2ccnc2C)ccc1-c1nnc(-c2c(-c3ccccc3)noc2C)o1 [Example 58, 2-[2-Methoxy-4-(2-methyl-imidazol-1-yl)-phenyl]-5-(5-methyl-3-phenyl-isoxazol-4-yl)-[1,3,4]oxadiazole]"
12,30.7,"Cc1onc(-c2ccccc2)c1-c1nnc(-c2ccc(-n3ccnc3C)cc2)o1 [Example 59, 2-[4-(2-Methyl-imidazol-1-yl)-phenyl]-5-(5-methyl-3-phenyl-isoxazol-4-yl)-[1,3,4]oxadiazole]"
13,96,"CCc1onc(-c2ccccc2)c1-c1nnc(-c2ccc(F)cc2OC)o1 [Example 60, 2-(5-Ethyl-3-phenyl-isoxazol-4-yl)-5-(4-fluoro-2-methoxy-phenyl)-[1,3,4]oxadiazole]"
14,17.7,"COc1cc(F)ccc1-c1nnc(-c2c(-c3ccccc3)noc2C(C)C)o1 [Example 61, 2-(4-Fluoro-2-methoxy-phenyl)-5-(5-isopropyl-3-phenyl-isoxazol-4-yl)-[1,3,4]oxadiazole]"
15,42.8,"COc1cc(NS(=O)(=O)c2cccs2)ccc1-c1nnc(-c2c(-c3ccccc3)noc2C)o1 [Example 62, Thiophene-2-sulfonic acid {3-methoxy-4-[5-(5-methyl-3-phenyl-isoxazol-4-yl)-[1,3,4]oxadiazol-2-yl]-phenyl}-amide]"
16,42.8,"COc1cc(NS(=O)(=O)C(C)C)ccc1-c1nnc(-c2c(-c3ccccc3)noc2C)o1 [Example 63, Propane-2-sulfonic acid {3-methoxy-4-[5-(5-methyl-3-phenyl-isoxazol-4-yl)-[1,3,4]oxadiazol-2-yl]-phenyl}-amide]"
17,4.2,"COc1cc(NC2CCOCC2)ccc1-c1nnc(-c2c(-c3ccccc3)noc2C)o1 [Example 64, {3-Methoxy-4-[5-(5-methyl-3-phenyl-isoxazol-4-yl)-[1,3,4]oxadiazol-2-yl]-phenyl}-(tetrahydro-pyran-4-yl)-amine]"
18,15.3,"COc1cc(NC2CCN(C)CC2)ccc1-c1nnc(-c2c(-c3ccccc3)noc2C)o1 [Example 65, {3-Methoxy-4-[5-(5-methyl-3-phenyl-isoxazol-4-yl)-[1,3,4]oxadiazol-2-yl]-phenyl}-(1-methyl-piperidin-4-yl)-amine]"
